The source of these data is patent publication US9808003B2, “Herbicidally active 2-(substituted-phenyl)-cyclopentane-1,3-dione compounds and derivatives thereof” (Syngenta Limited, priority 2013, dated 2017).

Holding throughout (assay): Test 1A glasshouse assay, post-emergence herbicidal activity
Type in all cases: in vivo

Test [1] has as its system Alopecurus myosuroides (ALOMY). The conditions noted are these: Alopecurus myosuroides, 312 h, application rate 250 g/ha, 13 days after application, visual (100%=total damage; 0%=no damage), read-out: Post-emergence Herbicidal Activity (% Phytotoxicity) ALOMY. The procedure, abridged: (§1)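 Post-emergence: plants sprayed after 8 days' glasshouse growth (24/16° C, 14 h light, 65% humidity) with acetone/water (50:50) formulation containing 0.5% Tween 20. Visual % phytotoxicity (0 = none, 100 = total damage) scored 13 days after application.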

In a further test the test system is Avena fatua (AVEFA). The conditions noted are these: Avena fatua, 312 h, application rate 250 g/ha, 13 days after application, visual (100%=total damage; 0%=no damage), read-out: Post-emergence Herbicidal Activity (% Phytotoxicity) AVEFA. The gist of the method: as §1
Test [2] deals with Echinochloa crus-galli (ECHCG). The conditions noted are these: Echinochloa crus-galli, 312 h, application rate 250 g/ha, 13 days after application, visual (100%=total damage; 0%=no damage), read-out: Post-emergence Herbicidal Activity (% Phytotoxicity) ECHCG. The procedure, abridged:
as §1

The next test has as its system Lolium perenne (LOLPE). The conditions noted are these: Lolium perenne, 312 h, application rate 250 g/ha, 13 days after application, visual (100%=total damage; 0%=no damage), read-out: Post-emergence Herbicidal Activity (% Phytotoxicity) LOLPE. The gist of the method: as §1

For the compound `Cc1cc(C)c(C2C(=O)CC(CCNC(=O)c3ncc(Cl)cc3F)C2=O)c(C)c1` (stereo not drawn) [Compound A189], the pest or weed control at 250 g/ha (in test [1]; in the test with Avena fatua (AVEFA); in test [2]; in the test with Lolium perenne (LOLPE)) was 100% throughout.

In the case of `Cc1cc(C)c(C2C(=O)CC(CCNC(=O)c3ccc(C=C(F)F)cn3)C2=O)c(C)c1` (stereo not drawn) [Compound A190], the pest or weed control at 250 g/ha was 80% in test [1], 90% with Avena fatua (AVEFA), 90% in test [2] and 90% in the test on Lolium perenne (LOLPE).

With `Cc1cc(-n2cc(Cl)cn2)cc(C)c1C1C(=O)CC(CCNC(=O)c2nc(Br)ccc2F)C1=O` (stereo not drawn) [Compound A191], the pest or weed control at 250 g/ha in test [1] was 100%; in the test with Avena fatua (AVEFA), 100%; in test [2], 100%; in the test on Lolium perenne (LOLPE) it was 90%.

Consider `CC#Cc1ccc(C(=O)NCCC2CC(=O)C(c3c(C)cc(C)cc3C)C2=O)nc1` (stereo not drawn) [Compound A192], for which the pest or weed control at 250 g/ha in test [1] was 80%; with Avena fatua (AVEFA), 90%; in test [2], 100%; with Lolium perenne (LOLPE), 100%.

With `Cc1cc(C)c(C2C(=O)CC(CCNC(=O)c3nc(Br)ccc3F)C2=O)c(C)c1` (stereo not drawn) [Compound A193], the pest or weed control at 250 g/ha in test [1] turned out to be 90%; with Avena fatua (AVEFA) it was 90%; in test [2], 90%; in the test with Lolium perenne (LOLPE), 100%.

Regarding `Cc1cc(C)c(C2C(=O)CC(CCNC(=O)c3nccnc3Cl)C2=O)c(C)c1` (stereo not drawn) [Compound A194], the pest or weed control at 250 g/ha stood at 80% in test [1], 90% in the test on Avena fatua (AVEFA), 100% in test [2] and 90% in the test with Lolium perenne (LOLPE).

In the case of `Cc1cc(C)c(C2C(=O)CC(CCNC(=O)c3cnc(Cl)cn3)C2=O)c(C)c1` (stereo not drawn) [Compound A195], the pest or weed control at 250 g/ha in test [1] came to 30%; in the test on Avena fatua (AVEFA), 30%; in test [2], 80%; in the test with Lolium perenne (LOLPE) it was 60%.

Take `Cc1cc(C)c(C2C(=O)CC(CCNC(=O)c3cncc(Cl)n3)C2=O)c(C)c1` (stereo not drawn) [Compound A196]: the pest or weed control at 250 g/ha was 80% in test [1], 90% in the test on Avena fatua (AVEFA), 100% in test [2] and 90% with Lolium perenne (LOLPE).

`Cc1cc(Br)cc(Br)c1C1C(=O)CC(CCNC(=O)c2ccccn2)C1=O` (stereo not drawn) [Compound A197]: the pest or weed control at 250 g/ha in test [1] is 90%; in the test on Avena fatua (AVEFA) it was 70%; in test [2], 100%; with Lolium perenne (LOLPE) it was 60%.

Regarding `Cc1cc(-c2cc(Cl)cc(Cl)c2)cc(C)c1C1C(=O)CC(CCNC(=O)c2ccccn2)C1=O` (stereo not drawn) [Compound A203], the pest or weed control at 250 g/ha in test [1] was 80%; in the test with Avena fatua (AVEFA) it was 100%; in test [2] it was 100%; in the test on Lolium perenne (LOLPE) it was 80%.

On to `Cc1ccc(-c2cc(C)c(C3C(=O)CC(CCNC(=O)c4ccccn4)C3=O)c(C)c2)cc1` (stereo not drawn) [Compound A204], for which the pest or weed control at 250 g/ha stood at 90% in test [1], 90% in the test with Avena fatua (AVEFA), 100% in test [2] and 100% with Lolium perenne (LOLPE).

`Cc1cc(C)c(C2C(=O)CC(CCNC(=O)c3snc(Cl)c3Cl)C2=O)c(C)c1` (stereo not drawn) [Compound A212]: the pest or weed control at 250 g/ha in test [1] amounted to 30%; in the test on Avena fatua (AVEFA), 50%; in test [2] it was 70%; in the test on Lolium perenne (LOLPE), 70%.

Regarding `Cc1cc(C)c(C2C(=O)CC(CCNC(=O)c3sc(Cl)nc3C(F)(F)F)C2=O)c(C)c1` (stereo not drawn) [Compound A213], the pest or weed control at 250 g/ha worked out at 10% in test [1], 10% with Avena fatua (AVEFA), 50% in test [2] and 60% in the test on Lolium perenne (LOLPE).

With `COC(=O)OC(C)OC1=C(c2c(C)cc(C)cc2C)C(=O)C(CCNC(=O)c2ccc(Br)cn2)C1` (stereo not drawn) [Compound P3], the pest or weed control at 250 g/ha was determined as 90% in test [1], 100% with Avena fatua (AVEFA), 100% in test [2] and 100% with Lolium perenne (LOLPE).

For the compound `CCSC(=O)OC1=C(c2c(C)cc(C)cc2C)C(=O)CC1CCNC(=O)c1ccc(Br)cn1` (stereo not drawn) [Compound P10], the pest or weed control at 250 g/ha (in test [1]; in the test on Avena fatua (AVEFA); in test [2]; in the test on Lolium perenne (LOLPE)) was 100% in each case.

`CCOC(=O)OC1=C(c2c(C)cc(C)cc2C)C(=O)C(CCNC(=O)c2ccc(Br)cn2)C1` (stereo not drawn) [Compound P11]: the pest or weed control at 250 g/ha (in test [1]; with Avena fatua (AVEFA); in test [2]; in the test on Lolium perenne (LOLPE)) was 100% in each case.

`CCCCC(=O)OC1=C(c2c(C)cc(C)cc2C)C(=O)C(CCNC(=O)c2ccc(Br)cn2)C1` (stereo not drawn) [Compound P12]: the pest or weed control at 250 g/ha (in test [1]; in the test on Avena fatua (AVEFA); in test [2]; in the test on Lolium perenne (LOLPE)) was 100% throughout.

Regarding `Cc1cc(C)c(C2=C(OC(=O)C(C)(C)C)CC(CCNC(=O)c3ccc(Br)cn3)C2=O)c(C)c1` (stereo not drawn) [Compound P13], the pest or weed control at 250 g/ha (in test [1]; with Avena fatua (AVEFA); in test [2]; in the test on Lolium perenne (LOLPE)) was 100% in each case.

Take `Cc1cc(-n2cc(Cl)cn2)cc(C)c1C1=C(OC(=O)c2ccc(F)cc2)CC(CCNC(=O)c2ccccn2)C1=O` (stereo not drawn) [Compound P14]: the pest or weed control at 250 g/ha (in test [1]; in the test with Avena fatua (AVEFA); in test [2]; in the test on Lolium perenne (LOLPE)) was 100% throughout.

Take `CCCCS(=O)(=O)OC1=C(c2c(C)cc(-n3cc(Cl)cn3)cc2C)C(=O)C(CCNC(=O)c2ccccn2)C1` (stereo not drawn) [Compound P15]: the pest or weed control at 250 g/ha (in test [1]; with Avena fatua (AVEFA); in test [2]; with Lolium perenne (LOLPE)) was 100% in each case.

For the compound `Cc1cc(-n2cc(Cl)cn2)cc(C)c1C1=C(OS(=O)(=O)c2ccc(F)cc2)CC(CCNC(=O)c2ccccn2)C1=O` (stereo not drawn) [Compound P16], the pest or weed control at 250 g/ha in test [1] was 100%; in the test with Avena fatua (AVEFA) it was 90%; in test [2], 100%; with Lolium perenne (LOLPE), 100%.

Consider `Cc1cc(C)c(C2=C(OC(=O)c3ccc(F)cc3)CC(CCNC(=O)c3ccc(Br)cn3)C2=O)c(C)c1` (stereo not drawn) [Compound P17], for which the pest or weed control at 250 g/ha (in test [1]; in the test with Avena fatua (AVEFA); in test [2]; in the test on Lolium perenne (LOLPE)) was 100% in each case.

With `CCCCS(=O)(=O)OC1=C(c2c(C)cc(C)cc2C)C(=O)C(CCNC(=O)c2ccc(Br)cn2)C1` (stereo not drawn) [Compound P18], the pest or weed control at 250 g/ha in test [1] turned out to be 100%; with Avena fatua (AVEFA) it was 90%; in test [2], 100%; in the test on Lolium perenne (LOLPE) it was 100%.

In the case of `Cc1cc(C)c(C2=C(OS(=O)(=O)c3ccc(F)cc3)CC(CCNC(=O)c3ccc(Br)cn3)C2=O)c(C)c1` (stereo not drawn) [Compound P19], the pest or weed control at 250 g/ha (in test [1]; with Avena fatua (AVEFA); in test [2]; in the test on Lolium perenne (LOLPE)) was 100% throughout.

Take `CCOCOC1=C(c2c(C)cc(C)cc2C)C(=O)C(CCNC(=O)c2ccc(Br)cn2)C1` (stereo not drawn) [Compound P20]: the pest or weed control at 250 g/ha (in test [1]; in the test with Avena fatua (AVEFA); in test [2]; in the test on Lolium perenne (LOLPE)) was 100% in each case.

For the compound `Cc1cc(-n2cc(Cl)cn2)cc(C)c1C1=C(OC(=O)N2CCCC2)CC(CCNC(=O)c2ccccn2)C1=O` (stereo not drawn) [Compound P21], the pest or weed control at 250 g/ha in test [1] turned out to be 80%; in the test on Avena fatua (AVEFA), 80%; in test [2] it was 100%; in the test on Lolium perenne (LOLPE) it was 70%.

As for `Cc1cc(C)c(C2=C(OC(=O)N3CCCC3)CC(CCNC(=O)c3ccc(Br)cn3)C2=O)c(C)c1` (stereo not drawn) [Compound P22], the pest or weed control at 250 g/ha came to 90% in test [1], 100% in the test on Avena fatua (AVEFA), 100% in test [2] and 100% with Lolium perenne (LOLPE).
